Experimental findings from ChEMBL document CHEMBL3608236, “Understanding the chemistry behind the antioxidant activities of butylated hydroxytoluene (BHT): a review” (Eur J Med Chem, 2015) are described below.

≈ marks a conversion by molar mass, not a printed value.

This data set in a line: Antioxidant activity assessed as hydrogen peroxide scavenging activity. Format: physicochemical.
By IC50 is commonly meant the midpoint of a concentration-inhibition curve. `Oc1ccc(-c2nnc(S)n2/N=C/c2ccccc2)cc1`: the IC50 turned out to be 24 µg/mL (≈ 81 µM).

Regarding `Oc1ccc(-c2nnc(S)n2/N=C/c2cccc(O)c2)cc1`, the IC50 was found to be 20 µg/mL (≈ 64 µM).

For the compound `Oc1ccc(-c2nnc(S)n2/N=C/c2ccccc2Cl)cc1`, the IC50 came out at 60 µg/mL (≈ 181 µM).

As for `O=[N+]([O-])c1ccccc1/C=N/n1c(S)nnc1-c1ccc(O)cc1`, the IC50 is 32 µg/mL (≈ 93.7 µM).

Turning to `O=[N+]([O-])c1cccc(/C=N/n2c(S)nnc2-c2ccc(O)cc2)c1`, the 50% inhibitory concentration (IC50) came to 38 µg/mL (≈ 111 µM).
